Where “and” joins values, the source holds several entries; their conditions need not be identical. Equal values may be shown once.
Assays:
MOLM13 = test: Cell growth inhibition, CellTiter-Glo Luminescent Cell Viability Assay, MOLM13; assay type: cell-based; details: MOLM13 cells, 4 days
Experimental: (§1) Cell growth inhibitory activity of representative Compounds of the Disclosure was determined using the CellTiter-Glo® Luminescent Cell Viability Assay. Cells were seeded in 384-well white opaque cell culture plates at a density of 2,000 cells/well with serially diluted compounds and incubated at 37° C. in an atmosphere of 95% air and 5% CO2 for 4 days. Cell viability was determined using the CellTiter-Glo® Luminescent Cell Viability Assay Kit (Promega, Madison, Wis.) according to the manufacture's instruction. Briefly, a volume of CellTiter-Glo® Reagent equal to the volume of cell culture medium was added to each well, and then the plates were incubated at room temperature for 10-20 minutes. The luminescent signal was measured using a Tecan Infinite M1000 multimode microplate reader (Tecan, Morrisville, N.C.). The half maximal inhibitory concentration (IC50) in Table 3 was calculated using the GraphPad Prism 5 software (GraphPad Software, La Jolla, Calif.).

MDA-MB-231 = test: Cell growth inhibition, CellTiter-Glo Luminescent Cell Viability Assay, MDA-MB-231; assay type: cell-based; details: MDA-MB-231 cells, 4 days
Experimental: as §1

SMILES	IC50 (MOLM13; Homo sapiens, MOLM-13, 96 h)	IC50 (MDA-MB-231; Homo sapiens, MDA-MB-231, 96 h)	IC50 (MOLM13)	IC50 (MDA-MB-231)
Cc1c(C#Cc2cnn(CCCC(=O)OCCN3CCC(Nc4cccc5c4CN(C4CCC(=O)NC4=O)C5=O)CC3)c2)sc2c1C(c1ccc(Cl)cc1)=N[C@@H](C)c1nnc(C)n1-2 (stereo partly drawn) [Cpd. No. 11, 2-(4-((2-(2,6-dioxopiperidin-3-yl)-1-oxoisoindolin-4-yl)amino)piperidin-1-yl)ethyl 4-(4-(((S)-4-(4-chlorophenyl)-3,6,9-trimethyl-6H-thieno[3,2-f][1,2,4]triazolo[4,3-a][1,4]diazepin-2-yl)ethynyl)-1H-pyrazol-1-yl)butanoate]	0.06 nM	0.1 nM	–	–
Cc1c(C#Cc2cnn(CCCC(=O)OCCOCCCN3CCC(Nc4cccc5c4CN(C4CCC(=O)NC4=O)C5=O)CC3)c2)sc2c1C(c1ccc(Cl)cc1)=N[C@@H](CC(=O)N1CCN(C)CC1)c1nnc(C)n1-2 (stereo partly drawn) [compound 2, 2-(3-(4-((2-(2,6-dioxopiperidin-3-yl)-1-oxoisoindolin-4-yl)amino)piperidin-1-yl)propoxy)ethyl 4-(4-(((S)-4-(4-chlorophenyl)-3,9-dimethyl-6-(2-(4-methylpiperazin-1-yl)-2-oxoethyl)-6H-thieno[3,2-f][1,2,4]triazolo[4,3-a][1,4]diazepin-2-yl)ethynyl)-1H-pyrazol-1-yl)butanoate]	7.5 nM	19.4 nM	–	–
Cc1c(C#Cc2cnn(CC(=O)OCC#Cc3cccc4c3CN(C3CCC(=O)NC3=O)C4=O)c2)sc2c1C(c1ccc(Cl)cc1)=N[C@@H](C)c1nnc(C)n1-2 (stereo partly drawn) [compound 3, 3-(2-(2,6-dioxopiperidin-3-yl)-1-oxoisoindolin-4-yl)prop-2-yn-1-yl 2-(4-(((S)-4-(4-chlorophenyl)-3,6,9-trimethyl-6H-thieno[3,2-f][1,2,4]triazolo[4,3-a][1,4]diazepin-2-yl)ethynyl)-1H-pyrazol-1-yl)acetate]	–	–	1.8 nM	2.1 nM
Cc1c(C#Cc2cnn(CCCC(=O)OCCOCCOCCOCC#Cc3cccc4c3CN(C3CCC(=O)NC3=O)C4=O)c2)sc2c1C(c1ccc(Cl)cc1)=N[C@@H](CC(=O)N1CCN(C)CC1)c1nnc(C)n1-2 (stereo partly drawn) [compound 6, 2-(2-(2-((3-(2-(2,6-dioxopiperidin-3-yl)-1-oxoisoindolin-4-yl)prop-2-yn-1-yl)oxy)ethoxy)ethoxy)ethyl 4-(4-(((S)-4-(4-chlorophenyl)-3,9-dimethyl-6-(2-(4-methylpiperazin-1-yl)-2-oxoethyl)-6H-thieno[3,2-f][1,2,4]triazolo[4,3-a][1,4]diazepin-2-yl)ethynyl)-1H-pyrazol-1-yl)butanoate]	2.8 nM	32 nM	–	–
Cc1c(C#Cc2cnn(CCCC(=O)OCCCOCCN3CCC(Nc4cccc5c4CN(C4CCC(=O)NC4=O)C5=O)CC3)c2)sc2c1C(c1ccc(Cl)cc1)=N[C@@H](CC(=O)N1CCN(C)CC1)c1nnc(C)n1-2 (stereo partly drawn) [compound 7, 3-(2-(4-((2-(2,6-dioxopiperidin-3-yl)-1-oxoisoindolin-4-yl)amino)piperidin-1-yl)ethoxy)propyl 4-(4-(((S)-4-(4-chlorophenyl)-3,9-dimethyl-6-(2-(4-methylpiperazin-1-yl)-2-oxoethyl)-6H-thieno[3,2-f][1,2,4]triazolo[4,3-a][1,4]diazepin-2-yl)ethynyl)-1H-pyrazol-1-yl)butanoate]	9.6 nM	4.5 nM	–	–
Cc1c(C#Cc2cnn(CCCC(=O)OCCCOCCN3CCC(Nc4cccc5c4CN(C4CCC(=O)NC4=O)C5=O)CC3)c2)sc2c1C(c1ccc(Cl)cc1)=N[C@@H](C)c1nnc(C)n1-2 (stereo partly drawn) [compound 8, 3-(2-(4-((2-(2,6-dioxopiperidin-3-yl)-1-oxoisoindolin-4-yl)amino)piperidin-1-yl)ethoxy)propyl 4-(4-(((S)-4-(4-chlorophenyl)-3,6,9-trimethyl-6H-thieno[3,2-f][1,2,4]triazolo[4,3-a][1,4]diazepin-2-yl)ethynyl)-1H-pyrazol-1-yl)butanoate]	1.1 nM	1.3 nM	–	–
Cc1c(C#Cc2cnn(CCCC(=O)OCCN3CCC(Nc4cccc5c4CN(C4CCC(=O)NC4=O)C5=O)CC3)c2)sc2c1C(c1ccc(Cl)cc1)=N[C@@H](CC(=O)N1CCN(C)CC1)c1nnc(C)n1-2 (stereo partly drawn) [compound 12, 2-(4-((2-(2,6-dioxopiperidin-3-yl)-1-oxoisoindolin-4-yl)amino)piperidin-1-yl)ethyl 4-(4-(((S)-4-(4-chlorophenyl)-3,9-dimethyl-6-(2-(4-methylpiperazin-1-yl)-2-oxoethyl)-6H-thieno[3,2-f][1,2,4]triazolo[4,3-a][1,4]diazepin-2-yl)ethynyl)-1H-pyrazol-1-yl)butanoate]	0.05 nM	0.08 nM	–	–
Cc1nnc2n1-c1sc(C#Cc3cnn(CCCC(=O)OCCOCCOCCOCCOc4cccc5c4CN(C4CCC(=O)NC4=O)C5=O)c3)c(Cc3ccccc3)c1COC2 (stereo not shown) [compound 22, 2-(2-(2-(2-((2-(2,6-dioxopiperidin-3-yl)-1-oxoisoindolin-4-yl)oxy)ethoxy)ethoxy)ethoxy)ethyl 4-(4-((3-benzyl-9-methyl-4H,6H-thieno[2,3-e][1,2,4]triazolo[3,4-c][1,4]oxazepin-2-yl)ethynyl)-1H-pyrazol-1-yl)butanoate]	5.2 nM	185 nM	–	–
Cc1nnc2n1-c1sc(C#Cc3ccn(CCC(=O)OCCCCc4cccc5c4CN(C4CCC(=O)NC4=O)C5=O)n3)c(Cc3ccccc3)c1COC2 (stereo not shown) [compound 29, 4-(2-(2,6-dioxopiperidin-3-yl)-1-oxoisoindolin-4-yl)butyl 3-(3-((3-benzyl-9-methyl-4H,6H-thieno[2,3-e][1,2,4]triazolo[3,4-c][1,4]oxazepin-2-yl)ethynyl)-1H-pyrazol-1-yl)propanoate]	0.3 nM	9.8 nM	–	–
Cc1nnc2n1-c1sc(C#Cc3ccn(CCC(=O)OCCCNc4cccc5c4CN(C4CCC(=O)NC4=O)C5=O)n3)c(Cc3ccccc3)c1COC2 (stereo not shown) [compound 30, 3-((2-(2,6-dioxopiperidin-3-yl)-1-oxoisoindolin-4-yl)amino)propyl 3-(3-((3-benzyl-9-methyl-4H,6H-thieno[2,3-e][1,2,4]triazolo[3,4-c][1,4]oxazepin-2-yl)ethynyl)-1H-pyrazol-1-yl)propanoate]	0.6 nM	148 nM	–	–

More lines, now with the values ahead:

IC50 (MOLM13; Homo sapiens, MOLM-13, 96 h)	IC50 (MDA-MB-231; Homo sapiens, MDA-MB-231, 96 h)	IC50 (MOLM13)	IC50 (MDA-MB-231)	SMILES
1.8 nM	39 nM	–	–	Cc1nnc2n1-c1sc(C#Cc3cnn(CCCOC(=O)CCc4cccc5c4CN(C4CCC(=O)NC4=O)C5=O)c3)c(Cc3ccccc3)c1COC2 (stereo not shown) [compound 17, 3-(4-((3-benzyl-9-methyl-4H,6H-thieno[2,3-e][1,2,4]triazolo[3,4-c][1,4]oxazepin-2-yl)ethynyl)-1H-pyrazol-1-yl)propyl 3-(2-(2,6-dioxopiperidin-3-yl)-1-oxoisoindolin-4-yl)propanoate]
2.1 nM	77.9 nM	–	–	Cc1nnc2n1-c1sc(C#Cc3cnn(CCCC(=O)OCOCCCOc4cccc5c4CN(C4CCC(=O)NC4=O)C5=O)c3)c(Cc3ccccc3)c1COC2 (stereo not shown) [compound 23, (3-((2-(2,6-dioxopiperidin-3-yl)-1-oxoisoindolin-4-yl)oxy)propoxy)methyl 4-(4-((3-benzyl-9-methyl-4H,6H-thieno[2,3-e][1,2,4]triazolo[3,4-c][1,4]oxazepin-2-yl)ethynyl)-1H-pyrazol-1-yl)butanoate]
2.4 nM	7.3 nM	–	–	Cc1nnc2n1-c1sc(C#Cc3cnn(CCCC(=O)OCCCN4CCC(Nc5cccc6c5CN(C5CCC(=O)NC5=O)C6=O)CC4)c3)c(Cc3ccccc3)c1COC2 (stereo not shown) [compound 25, 3-(4-((2-(2,6-dioxopiperidin-3-yl)-1-oxoisoindolin-4-yl)amino)piperidin-1-yl)propyl 4-(4-((3-benzyl-9-methyl-4H,6H-thieno[2,3-e][1,2,4]triazolo[3,4-c][1,4]oxazepin-2-yl)ethynyl)-1H-pyrazol-1-yl)butanoate]
0.2 nM	2 nM	–	–	Cc1nnc2n1-c1sc(C#Cc3ccn(CCC(=O)OCCC#Cc4cccc5c4CN(C4CCC(=O)NC4=O)C5=O)n3)c(Cc3ccccc3)c1COC2 (stereo not shown) [compound 28, 4-(2-(2,6-dioxopiperidin-3-yl)-1-oxoisoindolin-4-yl)but-3-yn-1-yl 3-(3-((3-benzyl-9-methyl-4H,6H-thieno[2,3-e][1,2,4]triazolo[3,4-c][1,4]oxazepin-2-yl)ethynyl)-1H-pyrazol-1-yl)propanoate]
1.3 nM	–	–	9.1 nM and 5.6 nM	Cc1nnc2n1-c1sc(C#Cc3cnn(CCOC(=O)CCC#Cc4cccc5c4CN(C4CCC(=O)NC4=O)C5=O)c3)c(Cc3ccccc3)c1COC2 (stereo not shown) [compound 31, 2-(4-((3-benzyl-9-methyl-4H,6H-thieno[2,3-e][1,2,4]triazolo[3,4-c][1,4]oxazepin-2-yl)ethynyl)-1H-pyrazol-1-yl)ethyl 5-(2-(2,6-dioxopiperidin-3-yl)-1-oxoisoindolin-4-yl)pent-4-ynoate]
0.6 nM	25.8 nM	–	–	Cc1nnc2n1-c1sc(C#Cc3cnn(CCOC(=O)CCCCc4cccc5c4CN(C4CCC(=O)NC4=O)C5=O)c3)c(Cc3ccccc3)c1COC2 (stereo not shown) [compound 32, 2-(4-((3-benzyl-9-methyl-4H,6H-thieno[2,3-e][1,2,4]triazolo[3,4-c][1,4]oxazepin-2-yl)ethynyl)-1H-pyrazol-1-yl)ethyl 5-(2-(2,6-dioxopiperidin-3-yl)-1-oxoisoindolin-4-yl)pentanoate]
–	–	1.6 nM	35.6 nM	Cc1nnc2n1-c1sc(C#Cc3cnn(CCOC(=O)CCC#Cc4cccc5c4CN(C4CCC(=O)NC4=O)C5=O)c3)c(Cc3ccccc3)c1COC2 (stereo not shown) [compound 33, 2-(4-((3-benzyl-9-methyl-4H,6H-thieno[2,3-e][1,2,4]triazolo[3,4-c][1,4]oxazepin-2-yl)ethynyl)-1H-pyrazol-1-yl)ethyl 5-(2-(2,6-dioxopiperidin-3-yl)-1-oxoisoindolin-4-yl)pent-4-ynoate]
